Test results reported in patent EP2181708A1, “Use of Valproate for reducing CHOP levels, particularly in a mammal having SCI” (Universitat Autonoma de Barcelona, priority 2008, dated 2010).

Legend:
Type in all cases: in vivo, Sprague-Dawley rats
P-eIF2α = assay: Western blot of phospho-eIF2α in spinal cord after contusion SCI; details: whether higher in VPA-treated injured spinal cords than in vehicle-treated ones
Procedure: Adult females Sprague-Dawley rats aged 11 weeks (220-250 g) were anesthetized with pentobarbital (40 mg/kg i.p.). When unresponsive, the vertebral column was exposed and a laminectomy carried out at T8-T9 levels. Rostral T7 and caudal T10 vertebral bodies were clamped with Adson stabilizing forceps, and carefully adjusted to level the spinal cord in the horizontal plane. A contusion injury was performed using the Infinite Horizon impactor device (Precision Scientific Instruments, Lexington, KY). The stainless steel impounder tip was placed at 3-4 mm above the exposed spinal cord, and then a fast impact produced applying forces of 150 or 250 kilodynes (KDyn) to the exposed spinal cord. The wound was sutured with 5-0 silk thread in the muscular plane and the skin was closed with small clips and disinfected with povidone iodine solution. Sham-operated animals received the same surgical procedure but sustained no impact injury; the spinal cord was left exposed for 5 min. […]
Rats were re-anesthetised and decapitated at 3 dpo for sample preparation. […] After clearance, protein concentration was measured by the BCA method assay (BCA Protein Assay kit, Pierce). […] The membrane was visualized by enhanced chemiluminiscence (ECL) method and the images analyzed with Gene Snap and Gene Tools software, and Gene Genome apparatus (Syngene). […]

spinal cord = assay: Histological analysis of lesion volume, tissue sparing and myelin after SCI
Procedure: (§1) Adult females Sprague-Dawley rats aged 11 weeks (220-250 g) were anesthetized with pentobarbital (40 mg/kg i.p.). When unresponsive, the vertebral column was exposed and a laminectomy carried out at T8-T9 levels. Rostral T7 and caudal T10 vertebral bodies were clamped with Adson stabilizing forceps, and carefully adjusted to level the spinal cord in the horizontal plane. A contusion injury was performed using the Infinite Horizon impactor device (Precision Scientific Instruments, Lexington, KY). The stainless steel impounder tip was placed at 3-4 mm above the exposed spinal cord, and then a fast impact produced applying forces of 150 or 250 kilodynes (KDyn) to the exposed spinal cord. The wound was sutured with 5-0 silk thread in the muscular plane and the skin was closed with small clips and disinfected with povidone iodine solution. Sham-operated animals received the same surgical procedure but sustained no impact injury; the spinal cord was left exposed for 5 min. The animals were maintained in a warm environment until full recovery, and received preventive antibiotic (amoxicyline) and analgesic (buprenorphine) treatment. All animals were kept under standard conditions of light and temperature and fed with food and water ad libitum. The procedures involving animals were approved by the Ethics Committee of our institution, and followed the European Communities Council Directive 86/609/EEC.
VPA was intraperitoneally administered at an initial dose of 150 mg/kg by 3 h after surgery, and then a dose of 300 mg/Kg either every 24 h or every 12 h during the first week post-surgery, following by a dose of 300 mg/Kg every 24 h for the next two weeks. Groups of rats subjected to SCI or sham operation received VPA or saline injections following the same regime. Experiments were approved by the Ethics Committee at the Universitat Autònoma de Barcelona, and followed the European Communities Council Directive 86/609/EEC
At 3 or 35 days post-surgery, rats were perfused transcardially with 4% paraformaldehyde in 0.1M phosphate buffer saline (PBS, pH 7.4). […]

[1] = tested on: oligodendrocytes, astrocytes; assay: Immunohistochemistry of glia (CC1/APC oligodendrocytes, GFAP astrocytes) after SCI
Procedure: as §1, with “The procedures involving animals were approved by the Ethics Committee of our institution, and followed the European Communities Council Directive 86/609/EEC.” left out

[2] = epicenter and adjacent section of the spinal cord, 35 days

SMILES: CCCC(CCC)C(=O)O [VPA, 2-propylpentanoic acid]
- levels of P-eIF2α (P-eIF2α): not
- extent of myelin loss (spinal cord; 2 mm from the epicenter, cresyl violet and luxol fast blue, 35 dpo): markedly reduced
- area of total tissue preserved (spinal cord; [2]): significantly increased
- area of white matter preserved (spinal cord; [2]): significantly increased
- total GFAP immunoreactivity in astrocytes ([1]; 35 dpo): no significant alterations
- proportion of oligodendrocytes ([1]; CC1 antibody, 1 and 2 mm caudal to the epicentre, vs vehicle): markedly increased
